The text below walks through data of patent US8609644B2, “Amino derivatives of androstanes and androstenes as medicaments for cardiovascular disorders” (priority 2006, dated 2013).

Structures can show the parent of a compound that is named as a salt. Where two headings read alike, the source gives them in different places.

The target of data set [1] is Na+, K+-ATPase (Canis lupus familiaris, UniProt P50997). Description: biochemical. Set-up: species or system dog.
Data set [2] deals with anesthetized guinea-pig. Description: Inotropic effect and lethal dose, slow intravenous infusion (over 90 minutes) in anesthetized guinea-pig. The conditions noted are these: for ED80 / ED (max) / Emax: Cavia porcellus, iv, 1.5 h; for ED80: read-out: ED80 (inotropic potency, dose increasing +dP/dTmax by 80%); for ED (max): read-out: EDmax (dose inducing maximum positive inotropic effect); for Emax: read-out: Emax % increase in +dP/dTmax; for Maximum dose infused: maximum dose infused in the survived animals.

The mark [3] stands for this setting: read-out: Na+, K+-ATPase Inhibition IC50.
Where [4] appears, read: dog kidney enzyme, read-out: Na+, K+-ATPase Inhibition IC50.

As a reminder, the IC50 is the concentration that inhibits the measured activity by half. In the case of `CNCCCON=C1CC[C@]2(C)[C@H]3CC[C@]4(C)C(=O)CC[C@H]4[C@@H]3CC(=NOC)[C@@]2(O)C1` [I-cs, (E,Z) 3-(3-N-Methylaminopropoxyimino)-5α-hydroxy-6-(E)-methoxyimino-androstane-17-one fumarate], the half-inhibitory concentration (IC50) in data set [1] (setting [3]) turned out to be 1100 nM. With `CC12CCC3C(C(=O)C(CO)C4CC(=NOCCN)CCC43C)C1CCC2=O` (mixture of isomers) [I-cd, (E,Z) 3-(2-Aminoethoxyimino)-6α-hydroxymethylandrostane-7,17-dione hydrochloride], in data set [1] (setting [4]), the IC50 was 12 nM. As for `C=C1C[C@@H]2[C@H](CC[C@]3(C)C(=O)CC[C@@H]23)[C@@]2(C)CC[C@@H](SCCCN)CC12` (stereo partly drawn) [I-dz, 3α-(3-Aminopropylthio)-6-methyleneandrostane-17-one fumarate], the IC50 in data set [1] (setting [4]) stood at 1500 nM.

`CNCCON=C1CC[C@@]2(C)C(C1)C(=NOC)C[C@@H]1[C@@H]2CC[C@]2(C)C(=O)CC[C@@H]12` (some centres unmarked) [I-ce, (E,Z) 3-(2-N-Methylaminoethoxyimino)-6-(E)-methoxyiminoandrostan-17-one hydrochloride]: the IC50 in data set [1] (setting [3]) turned out to be 650 nM. Take `C[C@]12CC[C@H]3[C@@H](C[C@@H](C#N)[C@@]4(O)CC(=NOCCN)CC[C@]34C)[C@@H]1CCC2=O` (mixture of isomers) [I-ae, (E,Z) 3-(2-Aminoethoxyimino)-5α-hydroxy-6β-cyanoandrostane-17-one fumarate]: the IC50 in data set [1] (setting [4]) amounted to 11000 nM. Regarding `C=CCON=C1CC2CC(=NOCCN)CCC2(C)C2CCC3(C)C(=O)CCC3C12` (mixture of isomers) [I-bu, (E,Z)-3-(2-Aminoethoxyimino)-7-(E)-allyloxyiminoandrostan-17-one fumarate], the IC50 in data set [1] (setting [4]) worked out at 3800 nM. With `CC12CCC3C(CC(O[N+](=O)[O-])C4CC(=NOCCN)CCC43C)C1CCC2=O` (single isomer, unassigned) [I-aa, (E,Z) 3-(2-Aminoethoxyimino)-17-oxoandrostane-6α-yl nitrate fumarate], in data set [1] (setting [4]), the IC50 turned out to be 330 nM.

`COC(=O)C1CC2C3CCC(=O)C3(C)CCC2C2(C)CCC(=NOCCN)CC12` (mixture of isomers) [I-au, (E,Z) 3-(2-Aminoethoxyimino)-6α-methoxycarbonylandrostan-17-one hydrochloride]: in data set [1] (setting [4]), the 50% inhibitory concentration (IC50) worked out at 410 nM. The compound `CC12CCC3C(CC(=CCO)C4CC(=NOCCN)CCC43C)C1CCC2=O` (mixture of isomers) [I-bj, (E,Z) 3-(2-Aminoethoxyimino)-6-(E)-[2-hydroxyethylidene]androstan-17-one hydrochloride] displayed an IC50 in data set [1] (Na+, K+-ATPase Inhibition IC50) of 770 nM.

`C=C1C[C@@H]2[C@H](CC[C@]3(C)C(=O)CC[C@@H]23)[C@@]2(C)CC[C@@H](SCCCNC)C[C@H]12` [I-ea, 3α-(3-N-Methylaminopropylthio)-6-methyleneandrostane-17-one fumarate]: the IC50 in data set [1] (setting [4]) turned out to be 2800 nM. With `CC12CCC3C(CC(O[N+](=O)[O-])C4CC(=NOCCN)CCC43C)C1CCC2=O` (single isomer, unassigned) [I-ab, (E,Z) 3-(2-Aminoethoxyimino)-17-oxoandrostane-6β-yl nitrate fumarate], the IC50 in data set [1] (setting [4]) was determined as 2900 nM. As to `CNCCCON=C1CCC2(C)C(C1)C(C(=O)OC)CC1C3CCC(=O)C3(C)CCC12` (mixture of isomers) [I-cm, (Z,E) 3-(3-N-Methylaminopropoxyimino)-6α-methoxycarbonylandrostan-17-one hydrochloride], the 50% inhibitory concentration (IC50) in data set [1] (setting [4]) was 4000 nM. Same read-out and setting: the figure for `C[C@]12CCC(=NOCCN)C[C@@H]1CC1(CC1)[C@@H]1[C@@H]2CC[C@]2(C)C(=O)CC[C@@H]12` (mixture of isomers) [I-cb, (E,Z) 3-(2-Aminoethoxyimino)-7-(spirocyclopropane)androstan-17-one hydrochloride] is 130 nM; for `COC(=O)C=C1CC2C3CCC(=O)C3(C)CCC2C2(C)CCC(=NOCCN)CC12` (mixture of isomers) [I-bk, Methyl [3-(E,Z)-(2-aminoethoxyimino)-17-oxoandrostane-6-(E)-ylidene]-acetate hydrochloride] it is 64000 nM. Turning to `C[C@]12CCC(=NOCCN)CC1C1(CO1)C[C@@H]1[C@@H]2CC[C@]2(C)C(=O)CC[C@@H]12` (stereo partly drawn) [I-bc, (E,Z)-3-(2-Aminoethoxyimino)androstane-6(R)-(spiro-2′-oxirane)-17-one hydrochloride], the half-maximal inhibitory concentration (IC50) in data set [1] (setting [3]) came to 910 nM. In the case of `C[C@]12CCC(=NOCCN)C[C@@H]1C[C@@H](CO)[C@@H]1[C@@H]2CC[C@]2(C)C(=O)CC[C@@H]12` (mixture of isomers) [I-bz, (E,Z) 3-(2-Aminoethoxyimino)-7α-hydroxymethylandrostane-17-one hydrochloride], the 50% inhibitory concentration (IC50) in data set [1] (setting [4]) is 1100 nM. For `C[C@]12CCC(=NOCCN)CC1C[C@H](CO)[C@@H]1[C@@H]2CC[C@]2(C)C(=O)CC[C@@H]12` (stereo partly drawn) [I-ca, (E,Z) 3-(2-Aminoethoxyimino)-7β-hydroxymethylandrostane-17-one hydrochloride], the 50% inhibitory concentration (IC50) in data set [1] (setting [3]) turned out to be 910 nM. Turning to `C[C@H]1O[C@@H](O[C@H]2[C@@H](O)C[C@H](O[C@H]3[C@@H](O)C[C@H](O[C@H]4CC[C@@]5(C)[C@H](CC[C@@H]6[C@@H]5C[C@@H](O)[C@]5(C)[C@@H](C7=CC(=O)OC7)CC[C@]65O)C4)O[C@@H]3C)O[C@@H]2C)C[C@H](O)[C@@H]1O` [digoxin, reference compound], in data set [2], the ED80 is 0.29 µmol/kg, the ED (max) stood at 0.65 µmol/kg, the Emax was found to be 158% and the Maximum dose infused was determined as 1.16 µmol/kg. Turning to `CNCCCON=C1CC[C@]2(C)[C@H]3CC[C@]4(C)C(=O)CC[C@H]4[C@@H]3C/C(=N\O)[C@@]2(O)C1` (mixture of isomers) [I-cr, (E,Z) 3-(3-N-Methylaminopropoxyimino)-5α-hydroxy-6-(E)-hydroxyiminoandrostan-17-one hydrochloride], in data set [2], the ED80 was found to be 1.21 µmol/kg, the ED (max) was 11.8 µmol/kg, the Emax was found to be 180% and the Maximum dose infused amounted to 50.4 µmol/kg. Further, the “% decrease from Emax after 20 min from the end of the infusion” value in data set [2] (duration of the inotropic effect) turned out to be 47%.

For the compound `C[C@]12CC/C(=N/OCCN)CC1[C@@H](C(N)=O)C[C@@H]1[C@@H]2CC[C@]2(C)C(=O)CC[C@@H]12` (stereo partly drawn) [I-as, (Z) 3-(2-Aminoethoxyimino)-6α-carbamoylandrostan-17-one hydrochloride], in data set [1] (setting [3]), the IC50 was determined as 630 nM. For the compound `C=C1CC2CC(=NOCCN)CCC2(C)C2CCC3(C)C(=O)CCC3C12` (mixture of isomers) [I-bx, (E,Z) 3-(2-Aminoethoxyimino)-7-methyleneandrostane-17-one hydrochloride], the half-inhibitory concentration (IC50) in data set [1] (Na+, K+-ATPase Inhibition IC50) was 400 nM. In the case of `CC12CCC3C(CC(CO)C4CC(=NOCCN)CCC43C)C1CCC2=O` (single isomer, unassigned) [I-aj, (E,Z) 3-(2-Aminoethoxyimino)-6β-hydroxymethylandrostan-17-one hydrochloride], the IC50 in data set [1] (setting [4]) was 1600 nM.

On to “3α-(3-Aminopropylthio)-6-(E)-hydroxyiminoandrostane-17-one hemifumarate [I-dw]”, for which the IC50 in data set [1] (setting [3]) was 850 nM. Regarding `CNCCCON=C1CCC2(C)C(C1)C(CO)C(O)C1C3CCC(=O)C3(C)CCC12` (mixture of isomers) [I-ek, (E,Z) 3-(3-N-Methylaminopropoxyimino)-6α-hydroxymethyl-7α-hydroxyandrostane-17-one hydrochloride], the IC50 in data set [1] (setting [4]) came out at 320 nM. `CNCCCON=C1CCC2(C)C(C1)CC1(CC1)C1C3CCC(=O)C3(C)CCC12` (mixture of isomers) [I-cv, (E,Z) 3-(3-N-Methylaminopropoxyimino)-7-(spirocyclopropane)androstan-17-one hydrochloride]: the half-inhibitory concentration (IC50) in data set [1] (setting [4]) amounted to 740 nM. With `C=CC1CC2C3CCC(=O)C3(C)CCC2C2(C)CCC(=NOCCN)CC12` (stereo not drawn) [I-al, (E,Z) 3-(2-Aminoethoxyimino)-6α-vinylandrostan-17-one hydrochloride], the IC50 in data set [1] (Na+, K+-ATPase Inhibition IC50) was 530 nM.

As for `CC(=O)OCC1CC2C3CCC(=O)C3(C)CCC2C2(C)CCC(=NOCCN)CC12` (stereo not drawn) [I-ap, (E,Z) 3-(2-Aminoethoxyimino)-6α-acetoxymethylandrostan-17-one fumarate], the IC50 in data set [1] (setting [4]) turned out to be 3000 nM. In data set [1] (Na+, K+-ATPase Inhibition IC50), `C[C@H]1C[C@H]2CC(=NOCCN)CC[C@]2(C)[C@H]2CC[C@]3(C)C(=O)CC[C@H]3[C@H]12` (mixture of isomers) [I-by, (E,Z) 3-(2-Aminoethoxyimino)-7β-methylandrostane-17-dione hydrochloride] yielded an IC50 of 640 nM. As to `C[C@]12CC[C@@H](/C=C\CCCCN)CC1/C(=N/O)C[C@@H]1[C@@H]2CC[C@]2(C)C(=O)CC[C@@H]12` (stereo partly drawn) [I-dj, 3α-(6-Aminohex-1-(Z)-enyl)-6-(E)-hydroxyiminoandrostan-17-one fumarate], the IC50 in data set [1] (setting [3]) was 1300 nM. The compound `CNCCCON=C1CCC2(C)C(CC(=O)C3C4CCC(=O)C4(C)CCC32)C1` (mixture of isomers) [I-cu, (E,Z) 3-(3-N-Methylaminopropoxyimino)androstane-7,17-dione fumarate] gave an IC50 in data set [1] (Na+, K+-ATPase Inhibition IC50) of 390 nM. `C=C1C[C@@H]2[C@H](CC[C@]3(C)C(=O)CC[C@@H]23)[C@@]2(C)CC[C@@H]([S@+]([O-])CCCN)CC12` (stereo partly drawn) [I-ec, 3α-[(R)-3-Aminopropylsulfinyl]-6-methyleneandrostane-17-one fumarate]: the IC50 in data set [1] (setting [3]) is 80000 nM. As for `CC12CCC3C(CC4(OCCO4)C4CC(=NOCCN)CCC34C)C1CCC2=O` (mixture of isomers) [I-ag, (E,Z) 3-(2-Aminoethoxyimino)-6-(2-spiro-1,3-dioxolane)androstane-17-one fumarate], the half-inhibitory concentration (IC50) in data set [1] (setting [4]) came to 5400 nM.

As for `C[C@]12CCC(=NOCCN)C[C@@H]1[C@]1(CO1)C[C@@H]1[C@@H]2CC[C@]2(C)C(=O)CC[C@@H]12` (mixture of isomers) [I-bb, (E,Z)-3-(2-Aminoethoxyimino)androstane-6(S)-(spiro-2′-oxirane)-17-one hydrochloride], the IC50 in data set [1] (setting [4]) was found to be 870 nM. `C[C@]12CCC(=NOCCN)CC1C[C@@H](O)[C@@H]1[C@@H]2CC[C@]2(C)C(=O)CC[C@@H]12` (stereo partly drawn) [I-bv, (E,Z) 3-(2-Aminoethoxyimino)-7α-hydroxyandrostane-17-one fumarate]: in data set [1] (setting [3]), the 50% inhibitory concentration (IC50) amounted to 520 nM.
